Results taken from ChEMBL document CHEMBL1133616, “Synthesis and structure-activity relationships of a new set of 2-arylpyrazolo[3,4-c]quinoline derivatives as adenosine receptor antagonists” (J Med Chem, 2000).

Experiments:
[1] = system: Adenosine receptor A2a (Bos taurus); test: Inhibition of specific [3H]-CGS- 21680 binding at Adenosine A2A receptor in bovine striatal membranes at 20 uM.; conditions: Striatum, Membrane
[2] = molecular target: Adenosine receptor A2a (Bos taurus); test: Displacement of specific [3H]-CGS- 21680 binding at Adenosine A2A receptor in bovine striatal membranes.
Adenosine receptor A3 = molecular target: T1, Adenosine receptor A3 (Homo sapiens, UniProt P0DMS8); test: Displacement of specific [125I]AB-MECA binding at human adenosine A3 receptor expressed in CHO cells; assay type: cell-based
T1 sequence (P0DMS8 whole entry): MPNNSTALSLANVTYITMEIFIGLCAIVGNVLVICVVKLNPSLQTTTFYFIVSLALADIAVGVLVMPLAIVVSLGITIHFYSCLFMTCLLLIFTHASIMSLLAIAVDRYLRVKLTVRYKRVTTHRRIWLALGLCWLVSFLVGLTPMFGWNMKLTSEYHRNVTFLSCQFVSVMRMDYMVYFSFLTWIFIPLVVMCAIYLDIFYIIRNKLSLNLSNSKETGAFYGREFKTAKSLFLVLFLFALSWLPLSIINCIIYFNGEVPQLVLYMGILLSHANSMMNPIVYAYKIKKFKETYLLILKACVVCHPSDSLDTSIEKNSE

Adenosine receptor A1 = molecular target: T2, Adenosine receptor A1 (Bos taurus, UniProt P28190); test: Displacement of specific [3H]CHA binding at adenosine A1 receptor in bovine brain membranes; assay type: cell membranes
T2 sequence (P28190 whole entry): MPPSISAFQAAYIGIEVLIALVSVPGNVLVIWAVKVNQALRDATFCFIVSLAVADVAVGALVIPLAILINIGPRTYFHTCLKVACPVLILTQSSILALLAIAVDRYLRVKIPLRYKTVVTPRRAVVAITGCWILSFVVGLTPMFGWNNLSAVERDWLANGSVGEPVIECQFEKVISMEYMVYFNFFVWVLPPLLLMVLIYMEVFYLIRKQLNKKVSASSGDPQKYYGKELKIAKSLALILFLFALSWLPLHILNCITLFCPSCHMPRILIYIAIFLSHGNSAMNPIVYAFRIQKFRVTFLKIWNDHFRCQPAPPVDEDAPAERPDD

[3] = molecular target: T3, Adenosine receptor A3 (Homo sapiens) (UniProt P0DMS8); test: Inhibition of [125I]AB-MECA binding to human Adenosine A3 receptor expressed in CHO cells at 1 uM; assay type: cell-based
T3 sequence (whole entry): T1 sequence (P0DMS8 whole entry)

[4] = molecular target: T4, Adenosine receptor A1 (Bos taurus) (UniProt P28190); test: Inhibition of [3H]CHA binding at Adenosine A1 receptor in bovine brain membranes at 20 uM; assay type: cell membranes
T4 sequence (whole entry): T2 sequence (P28190 whole entry)

SMILES: Cc1ccccc1-n1cc2c(n1)c(O)nc1ccccc12
- inhibition [1]: 0%

SMILES: Cc1cccc(-n2cc3c(n2)c(NC2CCCCC2)nc2ccccc23)c1
- Ki [2]: 11400 nM
- Ki (Adenosine receptor A3): 44.1 nM
- Ki (Adenosine receptor A1): 22.2 nM

SMILES: Clc1ccc2nc(NC3CCCCC3)c3nn(-c4ccccc4)cc3c2c1
- Ki [2]: 4140 nM
- Ki (Adenosine receptor A3): 2130 nM
- Ki (Adenosine receptor A1): 27.1 nM

SMILES: Fc1cccc(-n2cc3c(n2)c(NC2CCCCC2)nc2ccccc23)c1
- Ki (Adenosine receptor A3): 155 nM
- Ki (Adenosine receptor A1): 54.7 nM

SMILES: Oc1nc2ccccc2c2cn(-c3ccc(Cl)cc3)nc12
- inhibition [1]: 35%

SMILES: Cc1ccc(-n2cc3c(n2)c(N)nc2ccccc23)cc1
- Ki (Adenosine receptor A3): 188 nM
- Ki (Adenosine receptor A1): 215 nM

SMILES: O=C(NCc1ccccc1)Nc1nc2ccccc2c2cn(-c3ccccc3)nc12
- Ki (Adenosine receptor A3): 8.3 nM
- Ki (Adenosine receptor A1): 186 nM
- inhibition [1]: 5%

SMILES: Nc1nc2ccccc2c2cn(-c3cccc(F)c3)nc12
- Ki (Adenosine receptor A3): 788 nM
- Ki (Adenosine receptor A1): 110 nM

SMILES: Cc1cccc(-n2cc3c(n2)c(=O)[nH]c2ccccc23)c1
- Ki (Adenosine receptor A3): 5 nM
- Ki (Adenosine receptor A1): 830 nM
- inhibition [1]: 17%

SMILES: O=C(Cc1ccccc1)Nc1nc2ccccc2c2cn(-c3ccccc3)nc12
- Ki (Adenosine receptor A3): 9.9 nM
- Ki (Adenosine receptor A1): 107 nM

SMILES: Fc1cccc(-n2cc3c(n2)c(NC2CCCC2)nc2ccccc23)c1
- Ki [2]: 2210 nM
- inhibition [3]: 34%
- Ki (Adenosine receptor A1): 9.3 nM

SMILES: Cc1ccc(-n2cc3c(n2)c(NC2CCCCC2)nc2ccccc23)cc1
- Ki (Adenosine receptor A3): 115 nM
- Ki (Adenosine receptor A1): 71.9 nM

SMILES: CC(=O)Nc1nc2ccccc2c2cn(-c3ccccc3)nc12
- Ki (Adenosine receptor A3): 48.2 nM
- Ki (Adenosine receptor A1): 75.9 nM

SMILES: O=c1[nH]c2ccccc2c2cn(-c3ccccc3)nc12
- Ki (Adenosine receptor A3): 30.8 nM

SMILES: Cc1cccc(-n2cc3c(n2)c(N)nc2ccccc23)c1
- Ki [2]: 3750 nM
- Ki (Adenosine receptor A3): 99.3 nM
- Ki (Adenosine receptor A1): 129 nM

SMILES: O=C(Nc1nc2ccccc2c2cn(-c3ccccc3)nc12)c1ccccc1
- Ki (Adenosine receptor A3): 2.1 nM
- inhibition [4]: 42%

SMILES: O=c1[nH]c2ccccc2c2cn(-c3ccc(Cl)cc3)nc12
- Ki (Adenosine receptor A3): 2.9 nM
- Ki (Adenosine receptor A1): 464 nM

SMILES: COc1ccc(-n2cc3c(n2)c(N)nc2ccccc23)cc1
- Ki (Adenosine receptor A3): 90.2 nM
- Ki (Adenosine receptor A1): 238 nM

SMILES: Cc1ccccc1-n1cc2c(n1)c(N)nc1ccccc12
- Ki [2]: 1600 nM
- Ki (Adenosine receptor A3): 3600 nM
- Ki (Adenosine receptor A1): 520 nM

SMILES: c1ccc(CCNc2nc3ccccc3c3cn(-c4ccccc4)nc23)cc1
- Ki (Adenosine receptor A3): 32.9 nM
- Ki (Adenosine receptor A1): 60.1 nM

SMILES: c1ccc(-n2cc3c(n2)c(NC2CCCC2)nc2ccccc23)cc1
- Ki [2]: 849 nM
- Ki (Adenosine receptor A3): 60.5 nM
- Ki (Adenosine receptor A1): 3.2 nM

SMILES: CCCn1c(=O)c2nn(-c3ccccc3)cc2c2ccccc21
- Ki (Adenosine receptor A3): 68.4 nM
- Ki (Adenosine receptor A1): 950 nM

SMILES: Cc1ccccc1-n1cc2c(n1)c(=O)[nH]c1ccccc12
- Ki (Adenosine receptor A3): 79.2 nM
- Ki (Adenosine receptor A1): 3200 nM

SMILES: Nc1nc2ccc(Cl)cc2c2cn(-c3ccccc3)nc12
- Ki [2]: 5750 nM
- Ki (Adenosine receptor A3): 309 nM
- Ki (Adenosine receptor A1): 86.1 nM

SMILES: O=C(Nc1ccccc1)Nc1nc2ccccc2c2cn(-c3ccccc3)nc12
- Ki (Adenosine receptor A3): 108 nM
- Ki (Adenosine receptor A1): 1500 nM
- inhibition [1]: 32%

SMILES: Oc1nc2ccccc2c2cn(-c3cccc(F)c3)nc12
- Ki (Adenosine receptor A3): 45.3 nM
- Ki (Adenosine receptor A1): 583 nM
- inhibition [1]: 0%

SMILES: Oc1nc2ccc(Cl)cc2c2cn(-c3ccccc3)nc12
- inhibition [1]: 52%

SMILES: c1ccc(CNc2nc3ccccc3c3cn(-c4ccccc4)nc23)cc1
- Ki [2]: 5400 nM
- Ki (Adenosine receptor A3): 35.8 nM
- Ki (Adenosine receptor A1): 132 nM

SMILES: COc1ccc(-n2cc3c(n2)c(=O)[nH]c2ccccc23)cc1
- Ki (Adenosine receptor A3): 3.2 nM
- Ki (Adenosine receptor A1): 1080 nM
- inhibition [1]: 18%

SMILES: Nc1nc2ccccc2c2cn(-c3ccccc3)nc12
- Ki (Adenosine receptor A3): 551 nM
- Ki (Adenosine receptor A1): 69.2 nM

SMILES: Cc1cccc(-n2cc3c(n2)c(NC2CCCC2)nc2ccccc23)c1
- Ki (Adenosine receptor A3): 22.3 nM
- Ki (Adenosine receptor A1): 40.7 nM

SMILES: Cn1c(=O)c2nn(-c3ccccc3)cc2c2ccccc21
- Ki (Adenosine receptor A3): 118 nM
- Ki (Adenosine receptor A1): 1230 nM

SMILES: Cc1ccccc1-n1cc2c(n1)c(NC1CCCC1)nc1ccccc12
- Ki (Adenosine receptor A3): 152 nM
- Ki (Adenosine receptor A1): 148 nM

SMILES: Cc1ccc(-n2cc3c(n2)c(=O)[nH]c2ccccc23)cc1
- Ki (Adenosine receptor A3): 3.2 nM
- Ki (Adenosine receptor A1): 3900 nM

SMILES: Nc1nc2ccccc2c2cn(-c3ccc(Cl)cc3)nc12
- Ki (Adenosine receptor A3): 150 nM

SMILES: c1ccc(-n2cc3c(n2)c(NC2CCCCC2)nc2ccccc23)cc1
- Ki (Adenosine receptor A3): 707 nM
- Ki (Adenosine receptor A1): 8.6 nM

SMILES: O=c1[nH]c2ccc(Cl)cc2c2cn(-c3ccccc3)nc12
- Ki (Adenosine receptor A3): 44.1 nM
- Ki (Adenosine receptor A1): 284 nM

SMILES: Clc1ccc(-n2cc3c(n2)c(NC2CCCCC2)nc2ccccc23)cc1
- Ki (Adenosine receptor A3): 56.5 nM
- Ki (Adenosine receptor A1): 478 nM
- inhibition [1]: 8%
